Results taken from patent US7091240B2, “Tubulin binding ligands and corresponding prodrug constructs” (Oxigene, Inc., priority 2000, dated 2006).
Read-outs that look alike come from different tables or passages of the source.

How the values were obtained:
purified tubulin = assay: Inhibition of tubulin polymerization assay; format: biochemical, bovine; conditions: for IC50: read-out: IC50 In Vitro Inhibition of Tubulin Polymerization, 1.5 mg/ml tubulin, preincubated 15 minutes at 37° C., GTP-induced
Procedure: IC50 values for tubulin polymerization were determined according to a previously described procedure (Bai et al, Cancer Research, 1996). Purified tubulin is obtained from bovine brain cells as described in Hamel and Lin (Hamel and Lin, Biochemistry, 1984). Various amounts of inhibitor were preincubated for 15 minutes at 37° C. with purified tubulin. After the incubation period, the reaction was cooled and GTP was added to induce tubulin polymerization. Polymerization was then monitored in a Gilford spectrophotometer at 350 nm. The final reaction mixtures (0.25 ml) contained 1.5 mg/ml tubulin, 0.6 mg/ml microtubule-associated proteins (MAPs), 0.5 mM GTP, 0.5 mM MgCl2, 4% DMSO and 0.1M 4-morpholineethanesulfonate buffer (MES, pH 6.4).

SF-268 = assay: In vitro cytotoxicity against human cancer cell lines (SRB); format: cell-based; conditions: CNS; 48 hours incubation; values marked *
Procedure: (§1) Briefly, the cell suspensions, diluted according to the particular cell type and the expected target cell density (5,000–40,000 cells per well based on cell growth characteristics), were added by pipet (100 μl) to 96-well microtiter plates. Inoculates were allowed a preincubation time of 24–28 hours at 37° C. for stabilization. Incubation with the inhibitor compounds lasted for 48 hours in 5% CO2 atmosphere and 100% humidity. Determination of cell growth was performed by in situ fixation of cells, followed by staining with a protein-binding dye sulforhodamine B (SRB), which binds to the basic amino acids of cellular macromolecules. The solubilized stain was measured spectrophotometrically.
(§2) Compounds were evaluated in terms of growth inhibitory activity against several human cancer cell lines including: central nervous system (“CNS”, SF-295 or SF-268), pancreas (BXPC-3), non-small cell lung cancer (“lung-NSC”, NCI-H460), breast (MCF-7), colon (KM20L2), ovarian (OVCAR-3), pharyngeal (FADU), or prostate (DU-145).

BXPC-3 = assay: as above; format: cell-based; conditions: pancreas; 48 hours incubation
Procedure: as §1, §2

MCF-7 = assay: as above; format: cell-based; conditions: breast; 48 hours incubation
Procedure: as §1, §2

DU-145 = assay: as above; format: cell-based; conditions: prostate; 48 hours incubation
Procedure: as §1, §2

KM20L2 = assay: as above; format: cell-based; conditions: colon; 48 hours incubation
Procedure: as §1, §2

NCI-H460 = assay: as above; format: cell-based; conditions: lung-NSC; 48 hours incubation
Procedure: as §1, §2

[1] = tested on: murine hemangioendothelioma MHEC-5T cell line; assay: In vitro antiproliferative activity, MTT assay; format: cell-based
Procedure: The following compounds were tested for in vitro antiproliferative activity against the murine hemangioendothelioma MHEC-5T cell line using a standard MTT assay (see Mosman, J. Immunol. Methods, 1983). In actively proliferating cells, an increase in MTT conversion is spectrophotometrically quantified by the reduction of MTT (3-[4,5-dimethylthiazol-2-yl]-2,5-diphenyl tetrazolium bromide) to the insoluble formazan dye by enzymes associated with metabolic activity. A compound with growth inhibitory activity will cause a reduction in dye formation relative to cells exposed to a vehicle control.

[2] = tested on: human breast cancer MDA-MB-231 model; assay: Tumor growth control in vivo; conditions: 400 mg/kg i.p. in saline, SCID mice, Days 1, 2 and 6 post-treatment
Procedure: The antitumor activity of BbT prodrug 8 was assessed in female tumor-bearing mice by measuring its effects on tumor volume in comparison with CA4P. A human breast cancer MDA-MB-231 model was established by subcutaneous injection of cultured M DA-MB-231 cells (1×10^6) in Fox Chase CB-17 SCID mice.
Mice were administered CA4P or BbT prodrug in saline carrier at 400 mg/kg by intraperitoneal (i.p.) injection after 1 week of MDA-MB inoculation. Saline carrier only was used as the control treatment. On Days 1, 2 and 6 post-treatment, tumors were measured by width and length by a caliber. Tumor volume was calculated according to the following formula: Length×Width^2×0.4. The relative anti-tumor effects are illustrated in FIG. 9.

SF-295 = assay: In vitro cytotoxicity against human cancer cell lines (SRB); format: cell-based; conditions: CNS; 48 hours incubation; unstarred values
Procedure: as §1, §2

OVCAR-3 = assay: as above; format: cell-based; conditions: ovarian; 48 hours incubation
Procedure: as §1, with “The activity of several compounds were tested against a variety of cell lines derived from human tumors, using an assay system similar to a procedure previously described (Monks et al, J. Natl. Cancer Inst., 1991). Briefly,” for “Briefly,”
as §2

FADU = assay: as above; format: cell-based; conditions: pharyngeal; 48 hours incubation
Procedure: as §1, with “The activity of several compounds were tested against a variety of cell lines derived from human tumors, using an assay system similar to a procedure previously described (Monks et al, J. Natl. Cancer Inst., 1991). Briefly,” for “Briefly,”
as §2

In vitro cytotoxicity = format: cell-based
[3] = tested on: MHEC-5T hemangioendothelioma tumor model; assay: Inhibition of tumor blood flow, Fluorescent Bead Assay; format: in vivo; conditions: single i.p. injection, 24 hours post-treatment, SCID mice
Procedure: The antivascular effects of the diphosphate BbF, Oxi-com 223, was assessed in tumor-bearing mice using a Fluorescent Bead Assay. A MHEC-5T hemangioendothelioma tumor model was established by subcutaneous injection of 0.5×10^6 cultured transformed cell murine myocardial vascular endothelial cell line (“MHEC5-T”) cells into the right flank of Fox Chase CB-17 Severe Combined Immunodeficient (“SCID”) mice. […] At 24 hours post-treatment, mice were injected intravenously with 0.25 ml of diluted FluoSphere beads (1:6 in physiological saline) in the tail vein, sacrificed after 3 minutes, and tumor was excised for cryosectioning. Tumor cryosections at a thickness of 8 μm were directly examined using quantitative fluorescent microscopy. Blood vessels were indicated by blue fluorescence from injected beads. For quanitification, image analysis of 3 sections from three tumors treated in each group were examined and vascular shutdown was expressed as vessel area (mm^2) per tumor tissue area (mm^2) as a percentage of the control (“% VAPM”). Compounds of the present invention were tested for antivascular effects at two dosages (100 mg/kg and 10 mg/kg) using the same Fluorescent Bead Assay as in the previous experiment.

[4] = 5 days, read-out: IC50 at 5 days
[5] = read-out: IC50 at 1 hour, 1 hour

| SMILES | IC50 (purified tubulin) | GI50 for Cell Line BXPC-3 (BXPC-3) | GI50 for Cell Line DU-145 (DU-145) | GI50 for Cell Line NCI-H460 (NCI-H460) | IC50 [1, 4] | IC50 [1, 5] | further results |
| --- | --- | --- | --- | --- | --- | --- | --- |
| COc1ccc2c(C(=O)c3cc(OC)c(OC)c(OC)c3)c(-c3ccc(OC)c(OP(=O)([O-])[O-])c3)oc2c1.[Na+].[Na+] [Oxi-com 195, 19, 2-(3″-disodiumphosphate-4″-methoxyphenyl)-6-methoxy-3-(3′,4′,5′-trimethoxybenzoyl)benzo[b]furan] | 4000 to 10000 nM | 2.3 µg/mL | 0.05 µg/mL | 0.05 µg/mL | 100 nM | > 25000 nM | GI50 for Cell Line SF-268 (SF-268): *0.062 μg/ml; GI50 for Cell Line MCF-7 (MCF-7): 0.042 µg/mL; GI50 for Cell Line KM20L2 (KM20L2): 3.8 µg/mL |
| COc1ccc(/C=C\c2cc(OC)c(OC)c(OC)c2)cc1OP(=O)([O-])[O-].[Na+].[Na+] [CA4P, Combretastatin A-4 Disodium Phosphate Prodrug, reference compound] | – | – | – | – | 2 nM | 800 nM | effect on tumor growth (tumor volume) relative to control treatment [2]: significantly inhibited tumor growth |
| COc1ccc2c(-c3ccc(OC)c(O)c3O)c(C(=O)c3cc(OC)c(OC)c(OC)c3)oc2c1 [Compound 31, 3-(2″,3″-dihydroxy-4″-methoxyphenyl)-6-methoxy-2-(3′,4′,5′-trimethoxybenzoyl)benzo[b]furan] | 1000 to 4000 nM | – | – | – | – | – | – |
| COc1ccc2c(C(=O)c3cc(OC)c(OC)c(OC)c3)c(-c3ccc(OC)c(OP(=O)([O-])[O-])c3)sc2c1.[Na+].[Na+] [Oxi-com 140, 8, 3-(3′,4′,5′-trimethoxybenzoyl)-2-(3′-sodiumphosphate-4′-methoxyphenyl)-6-methoxybenzo[b]thiophene] | – | 0.35 µg/mL | 0.045 µg/mL | 0.035 µg/mL | 129 nM | > 11200 nM | effect on tumor growth (tumor volume) relative to control treatment [2]: significantly inhibited tumor growth; GI50 for Cell Line SF-295 (SF-295): 0.11 µg/mL; GI50 for Cell Line MCF-7 (MCF-7): 0.028 µg/mL; GI50 for Cell Line KM20L2 (KM20L2): 0.22 µg/mL |
| C#C/C=C\C#CC(=O)c1cc(OC)c(OC)c(OC)c1 [Enediyne, 47, 1-(3,4,5-trimethoxybenzoyl)-(Z)-3-ene-1,5-hexadiyne] | – | 1.4 µg/mL | 0.54 µg/mL | 1.7 µg/mL | – | – | inhibition of tubulin polymerization (in words) (purified tubulin): excellent inhibition of tubulin polymerization; GI50 for Cell Line OVCAR-3 (OVCAR-3): 0.53 µg/mL; GI50 for Cell Line FADU (FADU): 0.95 µg/mL; cytotoxicity (in words) (In vitro cytotoxicity): strong cytotoxicity; GI50 for Cell Line SF-295 (SF-295): 1.7 µg/mL |
| COc1ccc2c(C(=O)c3cc(OC)c(OC)c(OC)c3)c(-c3ccc(OC)c(OP(=O)([O-])[O-])c3)oc2c1.[Na+].[Na+] [Oxi-com 223, 33, 3-(3′,4′,5′-trimethoxybenzoyl)-2-(3′-disodiumphosphate-4′-methoxyphenyl)-6-methoxybenzo[b]furan] | – | – | – | – | > 1400 nM | > 50000 nM | % VAPM at 10 mg/kg dose ([3]; 10 mg/kg): 10%; % VAPM at 100 mg/kg dose ([3]; 100 mg/kg): 51% |
| COc1ccc2c(-c3ccc(OC)c(O)c3O)coc2c1 [Compound 28, 3-(2′,3′-hydroxy-4′-methoxyphenyl)-6-methoxybenzo[b]furan] | 1000 to 4000 nM | – | – | – | – | – | – |
